biological target: T1, PD-1/PD-L1 (Homo sapiens, UniProt Q9NZQ7); experiment: PD-1/PD-L1 homogenous time-resolved fluorescence (HTRF) binding assay; settings: recombinant human PD-L1 (19-238) His-tag / human PD-1 (25-167) Fc tag, class symbols
T1 construct: Recombinant human PD-L1 protein (19-238) with a His-tag at the C-terminus; purchased AcroBiosystems PD1-H5229 (PD-L1); PD1-H5257 (PD-1)
Method in brief: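 HTRF binding of human PD-1 (25-167, Fc-tagged) at 3 nM and PD-L1 (19-238, His-tagged) at 10 nM, preincubated 40 min with inhibitor in PBS pH 7.4, 0.05% Tween-20, 0.1% BSA, 1% DMSO, 25°C. Eu anti-IgG (1 nM) and anti-His-APC (20 nM) added, 60 min; 665/620 nm ratio; IC50 from curve fit.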

T1 sequence (Q9NZQ7 19-238): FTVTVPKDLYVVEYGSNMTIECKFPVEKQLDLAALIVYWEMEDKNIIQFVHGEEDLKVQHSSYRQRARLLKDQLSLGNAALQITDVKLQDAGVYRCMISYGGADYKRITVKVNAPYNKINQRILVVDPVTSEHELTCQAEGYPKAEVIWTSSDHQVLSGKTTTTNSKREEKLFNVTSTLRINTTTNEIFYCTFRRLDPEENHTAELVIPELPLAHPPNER

SMILES | IC50
COC(=O)Cn1cc(CN2CCc3nc(C(=O)N4CCc5c(-c6cccc7c6CCN7C(=O)c6nc7c(s6)CN(Cc6cn(CC(=O)OC)nn6)CC7)cccc54)sc3C2)nn1 [Example 135, dimethyl 2,2′-(((([4,4′-biindoline]-1,1′-dicarbonyl)bis(6,7-dihydrothiazolo[5,4-c]pyridine-2,5(4H)-diyl))bis(methylene))bis(1H-1,2,3-triazole-4,1-diyl))diacetate] | < 25 nM
O=C(c1nc2n(n1)CCNC2)N1CCc2c(-c3cccc4c3CCN4C(=O)c3nc4n(n3)CCNC4)cccc21 [Example 136, [4,4′-biindoline]-1,1′-diylbis((5,6,7,8-tetrahydro-[1,2,4]triazolo[1,5-a]pyrazin-2-yl)methanone)] | 100 to 200 nM
NCc1nc(C(=O)N2CCc3c(-c4cccc5c4CCN5C(=O)c4n[nH]c(CN)n4)cccc32)n[nH]1 [Example 137, (5-((12-azanyl)methyl)-1H-1,2,4-triazol-3-yl)(1′-(5-(aminomethyl)-1H-1,2,4-triazole-3-carbonyl)-[4,4′-biindolin]-1-yl)methanone] | 100 to 200 nM
Cc1c(Nc2nccc3cc(CNCC(=O)O)cnc23)cccc1-c1cccc(Nc2nccc3cc(CNCC(=O)O)cnc23)c1C [Example 138, 2,2′-(((((2,2′-dimethyl-[1,1′-biphenyl]-3,3′-diyl)bis(azanediyl))bis(1,7-naphthyridine-8,3-diyl))bis(methylene))bis(azanediyl))diacetic acid] | < 25 nM
Cc1c(Nc2nccc3cc(CNCCO)cnc23)cccc1-c1cccc(Nc2nccc3cc(CNCC(=O)O)cnc23)c1C [Example 139, ((8-((3′-((3-(((2-hydroxyethyl)amino)methyl)-1,7-naphthyridin-8-yl)amino)-2,2′-dimethyl-[1,1′-biphenyl]-3-yl)amino)-1,7-naphthyridin-3-yl)methyl)glycine] | < 25 nM
Cc1c(Nc2nccc3cc(CNC(C)C(=O)O)cnc23)cccc1-c1cccc(Nc2nccc3cc(CNC(C)C(=O)O)cnc23)c1C (stereo not shown) [Example 140, 2,2′-(((((2,2′-dimethyl-[1,1′-biphenyl]-3,3′-diyl)bis(azanediyl))bis(1,7-naphthyridine-8,3-diyl))bis(methylene))bis(azanediyl))dipropionic acid] | < 25 nM
Cc1c(Nc2nccc3cc(CNCC(=O)O)cnc23)cccc1-c1cccc(Nc2nccc3cc(CNC[C@@H](O)CC(=O)O)cnc23)c1C [Example 141, (S)-4-(((8-((3′-((3-(((carboxymethyl)amino)methyl)-1,7-naphthyridin-8-yl)amino)-2,2′-dimethyl-[1,1′-biphenyl]-3-yl)amino)-1,7-naphthyridin-3-yl)methyl)amino)-3-hydroxybutanoic acid] | < 25 nM
Cc1c(Nc2nccc3cc(CNC(C(=O)O)C(C)C)cnc23)cccc1-c1cccc(Nc2nccc3cc(CNC(C(=O)O)C(C)C)cnc23)c1C (stereo not shown) [Example 142, 2,2′-(((((2,2′-dimethyl-[1,1′-biphenyl]-3,3′-diyl)bis(azanediyl))bis(1,7-naphthyridine-8,3-diyl))bis(methylene))bis(azanediyl))bis(3-methylbutanoic acid)] | < 25 nM
Cc1c(Nc2nccc3cc(CNC[C@@H](O)CC(=O)O)cnc23)cccc1-c1cccc(Nc2nccc3cc(CNC[C@@H](O)CC(=O)O)cnc23)c1C [Example 143, (3S,3'S)-4,4′-(((((2,2′-dimethyl-[1,1′-biphenyl]-3,3′-diyl)bis(azanediyl))bis(1,7-naphthyridine-8,3-diyl))bis(methylene))bis(azanediyl))bis(3-hydroxybutanoic acid)] | < 25 nM
Cc1c(Nc2nccc3cc(CNCC(N)=O)cnc23)cccc1-c1cccc(Nc2nccc3cc(CNCC(N)=O)cnc23)c1C [Example 144, 2,2′-(((((2,2′-dimethyl-[1,1′-biphenyl]-3,3′-diyl)bis(azanediyl))bis(1,7-naphthyridine-8,3-diyl))bis(methylene))bis(azanediyl))diacetamide] | < 25 nM

Source: patent US20210040118A1, “IMMUNOMODULATORS, COMPOSITIONS AND METHODS THEREOF” (BETTA PHARMACEUTICALS CO., LTD, priority 2018, published 2021)
